Consider two compounds from publication PMC5566891, “Eukaryotic transporters for hydroxyderivatives of benzoic acid” (Scientific Reports, 2017).

This experiment has as its target T1, Hbt2 (Hbt2p) (Lodderomyces parapsilosis, UniProt G8BG57).
T1 construct: native untagged full-length transporter in wild-type cells; assigned by knockout of HBT2
In words: […]-substrate uptake, wild-type versus hbt2 knockout cells. The format is cell-based. Particulars: 50 µM, 50 mM Tris-HCl pH 7.5, 28 °C, labelled compound.

T1 sequence (G8BG57 entry or part of it): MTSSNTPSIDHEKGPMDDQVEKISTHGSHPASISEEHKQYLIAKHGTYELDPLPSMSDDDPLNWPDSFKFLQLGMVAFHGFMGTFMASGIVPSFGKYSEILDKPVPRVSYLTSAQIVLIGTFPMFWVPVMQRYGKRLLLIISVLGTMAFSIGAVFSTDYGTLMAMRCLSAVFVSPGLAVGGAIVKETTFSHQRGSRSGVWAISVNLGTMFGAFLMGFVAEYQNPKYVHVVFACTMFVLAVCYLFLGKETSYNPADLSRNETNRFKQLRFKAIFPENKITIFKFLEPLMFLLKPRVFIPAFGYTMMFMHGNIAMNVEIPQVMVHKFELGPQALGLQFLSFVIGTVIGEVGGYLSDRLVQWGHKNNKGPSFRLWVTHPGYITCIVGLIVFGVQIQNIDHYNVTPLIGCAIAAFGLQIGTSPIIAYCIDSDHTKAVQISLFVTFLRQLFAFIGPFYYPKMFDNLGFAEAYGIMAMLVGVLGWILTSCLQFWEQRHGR

`O=C(O)c1ccc(O)cc1` [4-hydroxybenzoate]: for the setting “cells grown on 4-hydroxybenzoate or hydroquinone”, the “14C-substrate uptake, wild-type versus hbt2 knockout cells” value is “uptake of both substrates is impaired in the ∆hbt2/∆hbt2 mutant”.
`O=C(O)c1ccc(O)c(O)c1` [protocatechuate]: where the note is “cells grown on hydroquinone”, the “14C-substrate uptake, wild-type versus hbt2 knockout cells” value was “uptake of both substrates is impaired in the ∆hbt2/∆hbt2 mutant”.
